The subject of one assay is C57B/6 mice. Put plainly: Carvacrol-induced itch-scratching behavior in mice. The assay is classed as in vivo, mouse. On the procedure: To assess itch-scratching behaviors, the hair of the rostral part of the mouse’s right neck was shaved using an electric hair clipper 24 hr before the start of experiments. Trpv3^-/- mice have been described previously ([Wang et al., 2021]). Scratching behaviors were recorded on video. The number of itch-scratching bouts was counted through video playback analysis. One scratching bout was defined as an episode in which a mouse lifted its right hind limb to the injection site and scratched continuously for any time length until this limb was returned to the floor or mouth ([Wilson et al., 2013]). All behavioral experiments were conducted in a double-blind manner. […] [Sun and Dong, 2016]).

The next assay deals with T1, mouse TRPV3 (Mus musculus, UniProt Q8K424).
T1 sequence (Q8K424 1-791): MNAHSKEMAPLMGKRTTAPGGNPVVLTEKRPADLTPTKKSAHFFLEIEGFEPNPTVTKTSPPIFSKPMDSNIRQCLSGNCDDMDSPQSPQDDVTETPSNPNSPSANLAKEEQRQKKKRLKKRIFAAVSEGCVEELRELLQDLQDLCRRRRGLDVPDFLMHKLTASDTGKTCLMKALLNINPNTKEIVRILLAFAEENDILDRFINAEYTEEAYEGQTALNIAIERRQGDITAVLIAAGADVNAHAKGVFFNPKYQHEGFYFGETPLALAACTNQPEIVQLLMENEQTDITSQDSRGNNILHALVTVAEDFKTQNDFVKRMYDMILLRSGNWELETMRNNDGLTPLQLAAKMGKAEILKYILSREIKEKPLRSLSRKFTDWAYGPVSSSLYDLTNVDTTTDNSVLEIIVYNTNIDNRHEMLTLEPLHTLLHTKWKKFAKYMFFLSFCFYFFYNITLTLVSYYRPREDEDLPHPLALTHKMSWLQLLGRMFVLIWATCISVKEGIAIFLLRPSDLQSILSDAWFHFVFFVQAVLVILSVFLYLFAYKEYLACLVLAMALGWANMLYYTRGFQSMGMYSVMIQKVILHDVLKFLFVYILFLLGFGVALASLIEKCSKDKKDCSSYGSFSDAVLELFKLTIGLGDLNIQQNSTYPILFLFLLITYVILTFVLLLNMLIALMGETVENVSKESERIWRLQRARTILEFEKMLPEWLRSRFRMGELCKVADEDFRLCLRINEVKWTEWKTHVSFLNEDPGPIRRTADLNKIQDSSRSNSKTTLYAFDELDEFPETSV
Description: Voltage-step whole-cell recording of TRPV3 currents (40 μM 2-APB) in HEK 293T cells. Type of assay: cell-based. Further details: expressed in transfected cells; host or cells: HEK 293T. To be noted: steps –160 to +180 mV, dyclonine 10, 30 μM, RR 10 μM. An excerpt: Conventional whole-cell and excised patch-clamp recording methods were used. For the recombinant expressing system, green fluorescent EGFP was used as a surface marker for gene expression. Recording pipettes were pulled from borosilicate glass capillaries (World Precision Instruments) and fire-polished to a resistance between 2 and 4 MΩ when filled with internal solution containing (in mM) 140 CsCl, 2.0 MgCl2, 5 EGTA, and 10 HEPES, pH 7.4 (adjusted with CsOH). Bath solution contained (in mM): 140 NaCl, 5 KCl, 3 EGTA, and 10 HEPES, pH 7.4 adjusted with NaOH. For recordings in keratinocytes, the bath saline consisted of (in mM) 140 NaCl, 5 KCl, 2 MgCl2, 2 CaCl2, 10 glucoses, and 10 HEPES, pH 7.4 adjusted with NaOH, and the pipette solution contained (in mM) 140 CsCl, 5 EGTA, and 10 HEPES, pH 7.3 adjusted with CsOH. […] For a subset of recordings, currents were amplified using an Axopatch 200B amplifier (Molecular Devices, Sunnyvale, CA) and recorded through a BNC-2090/MIO acquisition system (National Instruments, Austin, TX) using QStudio developed by Dr. Feng Qin at State University of New York at Buffalo. […] As determined by the conductance tests, the solution around a patch under study was fully controlled by the application of a flow rate of 100 μl/min or greater. […]

These results are taken from PMC8112869, “Therapeutic inhibition of keratinocyte TRPV3 sensory channel by local anesthetic dyclonine” (eLife, 2021).

SMILES strings stand for the structures.

Consider `Cc1ccc(C(C)C)cc1O` [carvacrol], for which the “change in the number of scratching bouts” value in the assay with C57B/6 mice (TRPV3-/- mice, intradermal carvacrol 0.1%, 50 μl) is “did not elicit a remarkable change”. In addition, the “accumulated scratching bouts over 30 min” value in the assay with C57B/6 mice (WT TRPV3 mice, intradermal carvacrol 0.1%, 50 μl) stood at 137.2 ± 33.9. Further, the “scratching bouts over 30 min” value with C57B/6 mice (carvacrol (0.1%, 50 μl) with pretreatment of normal saline) is 137.8 ± 18.3.
With `N.N.N.N.N.N.N.N.N.N.N.N.N.N.[Cl-].[Cl-].[Cl-].[Cl-].[Cl-].[Cl-].[O-2].[O-2].[Ru+3].[Ru+3].[Ru+4]` [RR, ruthenium red], at mouse TRPV3, the “effect on TRPV3-mediated inward and outward currents (voltage dependence)” value is “only inhibited TRPV3-mediated inward currents but enhanced outward currents”.
